# Measured values taken from US12629390B2, “Stabilized amorphous calcium carbonate for treatment of neurological, muscular and infertility diseases or conditions” (AMORPHICAL LTD., priority 2016, dated 2026).
# Legend:
# mdx cell line = test: myotube formation, CK activity and contraction in mdx cell line; type: cell-based, mice; details: final Ca2+ 2 mM in Fusion Medium
# Procedure: Cells from the Mdx cell line were seeded in a Gelatin coated 12 wells culture plate, 3×10^4 cells/well containing 1 mL of Proliferation Medium. Two days later (˜66% confluence), the medium was changed to Fusion Medium which was changed twice a week. The various calcium preparations were separately added to the Fusion Medium according to the treatment described in Table 3. Cultures were enriched with the various calcium preparations, at Ca^2+ concentration of 1 mM. Since the medium already contained 1 mM of calcium ions, then the final concentration of Ca2+ was of 2 mM.
# The effects of the tested calcium preparations on cell proliferation, fusion to form myotubes and muscle contraction were monitored by daily phase contrast microscopic observation. At predetermined days, cultures were fixed in methanol for 20 minutes and then stained with Giemsa in order to evaluate the number of myotubes formed with time in cultures.
# At predetermined days, cells were collected from culture wells (using a rubber policeman) and kept in 1 mL PBS (without Ca^2+) at −70° C. until analyzed. For CK measurement cell samples were thawed and physically lysed using a sonicator, to release the CK from muscle myotubes. CK concentration was determined using Creatine Kinase Activity Assay Kit (CK-NAC REAGENT SET, CURTISS, CHEM-INDEX INC, Hialeah, FL, USA).
# [1] = tested on: spinal cord-dorsal root ganglia (SC-DRG) slices; test: nerve fiber sprouting from SC-DRG co-cultures; type: cell-based, rat; details: calcium preparation at Ca2+ 2 mM; after 4 days of cultivation; portion of explants (out of 6)
# Procedure: Neural and Vascular Reconstruction Gel ([…] Labs proprietary) is composed of two main components: high molecular hyaluronic acid (HA, 3×10^6 Da, BTG, Israel) and laminin (Sigma). […] The gel has the texture of a viscous liquid, it adheres easily and successfully the embedded cells or explants to the plastic or glass substratum, and enabled nerve fiber outgrowth in a 3D pattern. All the experiments were carried out and authorized by the local ethics committee recognized by the Israeli authorities for animal experimentation. Stationary organotypic cultures of dorsal root ganglia (DRG) and spinal cord (SC) as well as cultures of dissociated brain cells were prepared from rat fetuses (15 days of gestation, Lewis inbred, Harlan, Israel). Immediately after dissection, the isolated tissues were cut with a […] tissue chopper into small slices (of 400 μm thickness). In these studies, two tissue culture strategies were used. […] In the second method, the tissue slices were further dissociated with a trypsin-EDTA solution for 30 min, and washed with a culture medium. Subsequently, the dissociated cells were added to a suspension of chitosan powder or gastrolith powder (micro carriers, MCs) and incubated in suspension at 37° C. for 4 days. […] Calcium source were as following: ACC-Etidronic Acid (ACC-ET) (fresh suspension); ACC-Phosphoserine (ACC-PS) (fresh suspension); Gastrolith (dissolved with 0.1 M HCl and then neutralized with NaOH 1M); gastrolith powder; […] The cultures were monitored by daily phase contrast microscopic observations starting from 24 hours after setting the cultures onward. Suspensions of fresh ACC preparations consisted of particles forming a stable suspension. The gastrolith is a natural ACC isolated from crabs, and can be purchased only as a dry powder. In this form, its other characteristic components (such as calcium ions and proteins) are not available to the cells. In order to increase their bioavailability, the gastrolith powder was dissolved in 0.1 M HCl (which mimics the acidity which exists in the stomach) and then neutralized with 1M NaOH. […] The specimens were then incubated with rabbit anti-neurofilament antibodies (NF, Novus Biologicals, 1:500) to visualize the neurite outgrowth. […] Finally, the samples were rinsed again with wash buffer, and mounted with mounting medium (Immco Diagnostic, USA).
# MBA-13 cells = test: Alizarin red staining of MBA13 stem cells differentiating to osteoblasts; type: cell-based; details: 10 days in culture
# Procedure: Two days following thawing, MBA-13 cells (received from Prof. Dov Zipori, Weizmann Institute of Science) were re-suspended in recombinant trypsin solution and seeded on a 96 wells plate, (Day “0”) in a concentration of 1×10^4 cells/well using MSC Nutristem® XF basal medium (Biological Industries, cat #05-200-1A) supplemented with Mesenchymal stem cells (MSC) supplement mix medium (Biological Industries cat #05-201-06) in a ratio of 50 ml:300 μl. […] Row G in the plate was treated with MSCgo medium (total 1.488 mM calcium). Row H of the plate was treated with MSC NutriStem® XF nutrient basal medium+supplement mix (total 1.488 mM calcium). On day 4, medium was exchanged with fresh preparations of ACC. […] Once the cells were fixated, two types of staining reagents were used to stain extracellular calcium or bone deposition in order to estimate osteoblasts functionality: (i) Alizarin red (Sigma A55333) and (ii) Alkaline Phosphatase (DAKO BCIP/NBT substrate system […]) as following: Alizarin red staining procedure-pH was adjusted to 4.2. Cells were washed twice with PBS and fixed with cold methanol for 5 minutes and then washed again with PBS. […] Following staining incubation, the samples were washed with water 2-3 times to remove unspecific staining.
# [2] = tested on: healthy skeletal muscle cultures; test: myotube formation and contraction in healthy skeletal muscle cultures; type: cell-based, rat; details: added at 1 mM (final Ca2+ 2 mM)
# Procedure: Stationary skeletal muscle cultures were prepared from healthy 1 day new born rat (Sprague Dawley, Harlan, Israel). The muscle tissue was dissected from posterior legs and was thoroughly minced. Digestion was performed with Trypsin-EDTA while gentle trituration. After 30 min the supernatant, containing dissociated cells, was collected and a fresh Trypsin-EDTA was added. This procedure was repeated two more times. Then, all supernatants were pooled, centrifuged, and the cell pellet was re-suspended in Proliferation Medium. Cells were seeded in a Gelatin coated 12 wells culture plates, 1×10^5 cells/well containing 1 mL of Proliferation Medium. Two days later, the medium was changed to Fusion Medium, which was then changed twice a week. The cultures were monitored by daily phase contrast microscopic observations from 24 hours after setting the cultures and onward.
# Stock solution of 1% porcine gelatin in water, was sterilized by autoclave. Once cooled, 500 μl of the solution were added to each well of the 12-wells culture plat. After incubation for 20 min at room temperature, the excess solution was removed, and the cells were seeded.
# For the proliferation stage, cells were cultured in: DMEM/F12 (containing 1 mM Ca^2+) +10% FBS, 25 μg/mL Gentamycin, and 2 mM L-Glutamine.
# For the fusion stage the Proliferation Medium was changed with Fusion Medium, which was prepared as following: DMEM/F12 (containing 1 mM Ca2+), 2% horse serum (HS), 2 mM L-Glutamine, 25 μg/mL Gentamycin, and 4 units/100 mL Insulin (all purchased from Biological-Industries, Israel).
# Control cultures were grown without further added calcium, or cultures enriched with free (soluble) stabilizer. The experiment was blinded by marking the various calcium preparations with arbitrary numerals only.
# The components were added in one of the following ways: (i) aqueous suspensions of dry material; (ii) aqueous suspension of fresh material (before drying), or (iii) dissolved with HCl (to mimic the acidity which exists in the stomach. After dissolving was accomplished, the formed solutions were neutralized with 1M NaOH).
smiles,measurement,setting,value
"[Ca+2].[Cl-].[Cl-] [CaCl2, calcium chloride]","muscle contractions observed, day after seeding",mdx cell line,≥ 10 days
same,Cultures with axonal regeneration (%),[1],50%
same,Alizarin Red staining signal,"MBA-13 cells; additional 1 mM calcium in MSCgo rapid osteogenic medium, gelatin coating",weak signal
same,large calcium deposition plaques,MBA-13 cells; additional 1 mM calcium,not observed
same,muscle fibers after 7 days,[2],"fewer, thinner and shorter muscle fibers"
same,"early formation of many myotubes, time of cultivation",[2]; dry powder suspended in water,later
